Key:
[1] = test system: SNU-5; experiment: SNU-5 gastric cancer CDX mouse model; type: in vivo; settings: for Tumor growth inhibition: p <0.001
Procedure: Left panel: Tumor growth curves. Right panel: Body weight development. […] QD: once daily treatment; po: per os.
Left panel: Tumor growth curves. Right panel: Body weight development. […] QW: once weekly treatment. p.o.: per oral.
Compound 1 (3 mg/kg) was administered orally to the gastric cancer CDX model of SNU-5 cells (FIG. 8C), which harbor a loss-of-function of p53 and mutations in the CDKN2A gene loci, the latter controlling the Rb and p53 pathways.
Values larger than 100% indicate tumor regression.

[2] = 14-day daily oral repeated-dose exploratory study in CD-1 mice (mesylate salt); type: in vivo; settings: for AUC(0-t) / Cmax: CD-1, mouse, in vivo, po
Procedure: This study explored the TK profile of Compound 1 after 14 days once daily oral dosing in male and female CD-1 mice.
Compound 1 (mesylate salt) was administered once daily for 14 consecutive days by oral gavage to groups of CD-1 mice (n=8/sex/group) at dose levels of 0 (control), 1, 5, 10 or 15 mg/kg/day. A suspension of 0.5% Methylcellulose (w/v) and 0.1% Polysorbate 80 (Tween 80) (v/v) was used as vehicle. For TK investigations sparse blood sampling was performed on treatment Days 1 and 14; three blood samples per animal and day were collected either pre-dose, 2 and 8 hours after administration (4 male and female animals per group) or 1, 4, and 24 hours (remaining 4 male and 4 female animals per group) after administration.

[3] = test system: LNCaP cells; experiment: Cell cycle distribution with siRNA-mediated knock-down of Rb and p53; type: cell-based; settings: LNCaP treated with Rb/p53 siRNA, 24 h
Procedure: Top panel: Cell cycle distribution in LNCap cells treated with siRNA (2 bars on the right) in comparison to control LNCaP cells without siRNA treatment (2 bars in the middle), in the absence (−) or presence (+) of Compound 1 for 24 h at the indicated concentration. For comparison, DU-145 cells harboring a combined Rb1 and p53 loss-of-function are included (2 bars on the left). Lower panel: Western blot analysis according to the same experimental conditions as given for the top panel.
In in vitro studies using LNCaP PC cells, harboring wild-type Rb and p53 genes, the effect of Compound 1 on the cell cycle was investigated in the absence and presence of siRNA-mediated knock-down of Rb and p53 gene expression. […] This effect is hypothesized to be due to Compound 1-mediated perturbation of the interaction between p300 and DDR factors and subsequent impact on the late cell cycle checkpoints and the DDR leading to cell death.

[4] = test system: human enzymes, transporters, kinases, receptors and ion channels; experiment: In vitro safety pharmacology panels
Procedure: Compound 1 was tested using in vitro safety pharmacology panels encompassing human enzymes, transporters, kinases, receptors and ion channels thought to be potential contributors to adverse drug reactions.

[5] = Single dose oral and intravenous PK in CD-1 mice (mesylate salt), blood; type: in vivo; parameters: AUC(0-t) / AUC(0-inf): unit not given here; settings: male, CD-1, mouse, whole blood
Procedure: These studies analyzed the PK profile of Compound 1 following a single oral gavage or single intravenous dose to CD-1 mice.
Compound 1 (mesylate salt) was administered to four groups of male mice (n=4/group) as a single oral (po) gavage administration at dose levels of 5, 10, 20, and 50 mg/kg/adm or as single intravenous (IV) dose at 5 and 50 mg/kg/adm. The vehicle was 1% methylcellulose with 0.1% Tween-80 in study AMP800 and 5% dextrose in water in study AMP799. Blood samples were collected at pre-dose, 10 minutes, 40 minutes, 2, 4, and 7 hours after administration for analysis of Compound 1 concentrations in blood by liquid chromatography—tandem mass spectroscopy (LC-MS/MS) and subsequent calculation of PK parameters.

## CC(C)C[C@@H]1NCCN([C@@H](CC(C)C)C(=O)N2CCC3(C[C@@H]2C)OCC(CN2CCCC2)CO3)C1=O (stereo partly drawn) [Compound 1, (S)-3-isobutyl-1-((S)-4-methyl-1-((S)-8-methyl-3-(pyrrolidin-1-ylmethyl)-1,5-dioxa-9-azaspiro[5.5]undecan-9-yl)-1-oxopentan-2-yl)piperazin-2-one]
[1]; 3 mg/kg oral
  anti-tumor efficacy, every other week vs daily: comparable anti-tumor efficacies
[1]; 30 mg/kg once every seven days for 7 weeks
  tumor growth: almost complete inhibition of tumor growth
[1]; once weekly 15 mg/kg/day, 7 weeks
  Tumor growth inhibition: 62% (<0.001)/
[1]; once weekly 30 mg/kg/day, 7 weeks
  Tumor growth inhibition: 91% (<0.001)/
[1]; once weekly 60 mg/kg/day as 30 mg/kg BID, 5 weeks
  Tumor growth inhibition: 98% (<0.001)/**5 weeks
[2]; 1, 5, 10, and 15 mg/kg/day orally once daily for 14 consecutive days
  tolerability: well-tolerated
[2]; female, 1 mg/kg, F, Day 1
  AUC(0-t): 33.1 ng·h/mL
  Cmax: 6.4 ng/mL
[2]; female, 1 mg/kg, F, Day 14
  AUC(0-t): 112 ng·h/mL
  Cmax: 16.6 ng/mL
[2]; female, 5 mg/kg, F, Day 1
  AUC(0-t): 258 ng·h/mL
  Cmax: 67.6 ng/mL
[2]; female, 5 mg/kg, F, Day 14
  AUC(0-t): 478 ng·h/mL
  Cmax: 115 ng/mL
[2]; female, 10 mg/kg, F, Day 1
  AUC(0-t): 304 ng·h/mL
  Cmax: 60.5 ng/mL
[2]; female, 10 mg/kg, F, Day 14
  AUC(0-t): 690 ng·h/mL
  Cmax: 97.7 ng/mL
[2]; female, 15 mg/kg, F, Day 1
  AUC(0-t): 711 ng·h/mL
  Cmax: 140 ng/mL
[2]; female, 15 mg/kg, F, Day 14
  AUC(0-t): 1090 ng·h/mL
  Cmax: 151 ng/mL
[2]; male, 1 mg/kg, M, Day 1
  AUC(0-t): 55.4 ng·h/mL
  Cmax: 10.9 ng/mL
[2]; male, 1 mg/kg, M, Day 14
  AUC(0-t): 108 ng·h/mL
  Cmax: 16.3 ng/mL
[2]; male, 5 mg/kg, M, Day 1
  AUC(0-t): 225 ng·h/mL
  Cmax: 42.9 ng/mL
[2]; male, 5 mg/kg, M, Day 14
  AUC(0-t): 607 ng·h/mL
  Cmax: 90 ng/mL
[2]; male, 10 mg/kg, M, Day 1
  AUC(0-t): 361 ng·h/mL
  Cmax: 64.8 ng/mL
[2]; male, 10 mg/kg, M, Day 14
  AUC(0-t): 782 ng·h/mL
  Cmax: 105 ng/mL
[2]; male, 15 mg/kg, M, Day 1
  AUC(0-t): 689 ng·h/mL
  Cmax: 133 ng/mL
[2]; male, 15 mg/kg, M, Day 14
  AUC(0-t): 717 ng·h/mL
  Cmax: 102 ng/mL
[3]
  cell cycle response: increase of cells in the S-phase
[4]
  responses in safety pharmacology panels: No significant responses were detected
[5]; intravenous 5 mg/kg
  AUC(0-inf): 1.11
  AUC(0-t): 1.03
  Tmax: 0.17 h
  half-life: 2.3 h
[5]; intravenous 50 mg/kg
  AUC(0-inf): 13
  AUC(0-t): 12.2
  Tmax: 0.17 h
  half-life: 1.6 h
[5]; oral 5 mg/kg
  AUC(0-inf): 0.246
  AUC(0-t): 0.179
  Tmax: 0.17 h
  half-life: 4 h
[5]; oral 10 mg/kg
  AUC(0-inf): 0.471
  AUC(0-t): 0.31
  Tmax: 0.17 h
  half-life: 5.6 h
[5]; oral 20 mg/kg
  AUC(0-inf): 2.49
  AUC(0-t): 1.97
  Tmax: 0.17 h
  half-life: 3.2 h
[5]; oral 50 mg/kg
  AUC(0-inf): 3.38
  AUC(0-t): 2.88
  Tmax: 0.67 h
  half-life: 2.6 h
